From ChEMBL document CHEMBL1139153, “Comparison of the in vitro apparent permeability and stability of opioid mimetic compounds with that of the native peptide” (Bioorg Med Chem Lett, 2007)

test: Apparent permeability from apical to basolateral side of human Caco-2 cell membrane; format: ADME, cell-based

**Q.** For `Cc1cc(O)cc(C)c1CC(N)C(=O)NCCCCc1nc(O)c(CCCCNC(=O)C(N)Cc2c(C)cc(O)cc2C)nc1C` (centres undefined), which Papp A→B is on record?
**A.** 0.845 ×10⁻⁶ cm/s

**Q.** With `Cc1cc(O)cc(C)c1CC(N)C(=O)NCCCc1nc(O)c(CCCNC(=O)C(N)Cc2c(C)cc(O)cc2C)nc1C` (centres undefined) as the molecule, how does the Papp A→B read?
**A.** 0.547 ×10⁻⁶ cm/s

**Q.** For `Cc1cc(O)cc(C)c1CC(N)C(=O)NCCCCNC(=O)C(N)Cc1c(C)cc(O)cc1C` (centres undefined), which Papp A→B is on record?
**A.** 0.139 ×10⁻⁶ cm/s

**Q.** With `NC(=O)[C@H](Cc1ccccc1)NC(=O)[C@H](Cc1ccccc1)NC(=O)[C@@H]1CCCN1C(=O)[C@@H](N)Cc1ccc(O)cc1` [ENDOMORPHIN 2] as the molecule, how does the Papp A→B read?
**A.** 0.0643 ×10⁻⁶ cm/s
